Among the data in ChEMBL document CHEMBL3045083, “Insect growth regulators as potential insecticides to control olive fruit fly (Bactrocera oleae Rossi): insect toxicity bioassays and molecular docking approach” (2013) are mortality, Survival and Activity values, retold here.

Bounds are passed on as bounds.

Holding throughout (type): functional
Experiment [1] deals with Bactrocera oleae. The experiment is described as follows: Insecticidal activity against Bactrocera oleae assessed as insect mortality after 24 hr.
Experiment [2] has as its system Bactrocera oleae. The experiment is described as follows: Insecticidal activity against Bactrocera oleae assessed as insect mortality at 96 mg Ai/L applied through oral ingestion measured after 24 hr (reference value: 0%).
For experiment [3], the system named is Bactrocera oleae. Put plainly: Insecticidal activity against Bactrocera oleae assessed as insect mortality at 96 mg Ai/L applied through oral ingestion measured after 15 days (reference value: 2.5 +/- 2.5%). To be noted: 360 h.
Experiment [4] concerns Bactrocera oleae. The experiment is described as follows: Insecticidal activity against Bactrocera oleae assessed as insect mortality at 96 mg Ai/L applied through residual contact on glass surfaces measured after 24 hr (reference value: 2.0 +/- 2.0%).
In experiment [5] the test system is Bactrocera oleae. Put plainly: Insecticidal activity against Bactrocera oleae assessed as insect mortality at 96 mg Ai/L applied through oral ingestion measured after 7 days (reference value: 2.5 +/- 2.5%). To be noted: 168 h.
For experiment [6], the system named is Bactrocera oleae. Put plainly: Insecticidal activity against Bactrocera oleae assessed as insect mortality at 96 mg Ai/L applied through residual contact on glass surfaces measured after 7 days (reference value: 4.0 +/- 4.0%). Conditions: 168 h.
The subject of experiment [7] is Bactrocera oleae. Put plainly: Insecticidal activity against Bactrocera oleae assessed as insect mortality at 96 mg Ai/L applied through residual contact on glass surfaces measured after 15 days (reference value: 45.8 +/- 16.3%). Conditions: 360 h.
Experiment [8] relates to Bactrocera oleae. The experiment is described as follows: Insecticidal activity against Bactrocera oleae assessed as insect survival lifespan at 96 mg Ai/L applied through oral ingestion (reference value: 79.7 +/- 12.2 days).
For experiment [9], the system named is Anastrepha suspensa. The experiment is described as follows: Insecticidal activity against Anastrepha suspensa assessed as insect mortality administered through diet ingestion measured after 12 to 14 days.
Experiment [10] relates to Bactrocera oleae. Put plainly: Insecticidal activity against Bactrocera oleae assessed as insect mortality at 180 mg Ai/L applied through residual contact on glass surfaces measured after 15 days (reference value: 45.8 +/- 16.3%). Conditions: 360 h.
Experiment [11] concerns Bactrocera oleae. Put plainly: Insecticidal activity against Bactrocera oleae assessed as insect mortality at 180 mg Ai/L applied through oral ingestion measured after 24 hr (reference value: 0%).
Experiment [12] has as its system Bactrocera oleae. Put plainly: Insecticidal activity against Bactrocera oleae assessed as insect mortality at 180 mg Ai/L applied through residual contact on glass surfaces measured after 7 days (reference value: 4.0 +/- 4.0%). Conditions: 168 h.
Experiment [13] relates to Bactrocera oleae. The experiment is described as follows: Insecticidal activity against Bactrocera oleae assessed as insect mortality at 180 mg Ai/L applied through oral ingestion measured after 15 days (reference value: 2.5 +/- 2.5%). To be noted: 360 h.
The test system of experiment [14] is Bactrocera oleae. Put plainly: Insecticidal activity against Bactrocera oleae assessed as insect mortality at 180 mg Ai/L applied through oral ingestion measured after 7 days (reference value: 2.5 +/- 2.5%). To be noted: 168 h.
Experiment [15] deals with Bactrocera oleae. Put plainly: Insecticidal activity against Bactrocera oleae assessed as insect survival lifespan at 180 mg Ai/L applied through oral ingestion (reference value: 79.7 +/- 12.2 days).
For experiment [16], the system named is Bactrocera oleae. Put plainly: Insecticidal activity against Bactrocera oleae assessed as insect mortality at 180 mg Ai/L applied through residual contact on glass surfaces measured after 24 hr (reference value: 2.0 +/- 2.0%).
Experiment [17] concerns Anastrepha suspensa. The experiment is described as follows: Insecticidal activity against Anastrepha suspensa assessed as reduction in egg viability administered through diet ingestion measured after 8 to 10 days.

On to `CC[C@H]1CCC[C@H](O[C@H]2CC[C@H](N(C)C)[C@@H](C)O2)[C@@H](C)C(=O)C2=C[C@@H]3[C@@H](C=C(C)[C@@H]4C[C@@H](O[C@@H]5O[C@@H](C)[C@H](OC)[C@@H](OC)[C@H]5OC)C[C@@H]34)[C@@H]2CC(=O)O1.CC[C@H]1CCC[C@H](O[C@H]2CC[C@H](N(C)C)[C@@H](C)O2)[C@@H](C)C(=O)C2=C[C@@H]3[C@@H](C=C[C@@H]4C[C@@H](O[C@@H]5O[C@@H](C)[C@H](OC)[C@@H](OC)[C@H]5OC)C[C@@H]34)[C@@H]2CC(=O)O1`, for which the mortality with Bactrocera oleae [1] is recorded as 62%.

Take `COc1cccc(C(=O)NN(C(=O)c2cc(C)cc(C)c2)C(C)(C)C)c1C` [METHOXYFENOZIDE]: the mortality at 96 µg/mL with Bactrocera oleae [2] is 2.5%; in the experiment with Bactrocera oleae [3], 2.5%; with Bactrocera oleae [4], 0%; in the experiment on Bactrocera oleae [5], 2.5%; in the experiment on Bactrocera oleae [6] it was 0%; in the experiment on Bactrocera oleae [7], 49.1%. In addition, in the experiment with Bactrocera oleae [8], the Survival worked out at 8.6 days.

Consider `CC(C)(C)N(NC(=O)c1ccccc1)C(=O)c1ccccc1` [RH-5849], for which, in the experiment with Anastrepha suspensa [9], the mortality is given as more than 75%. In addition, the mortality at 180 µg/mL worked out at 100% in the experiment with Bactrocera oleae [10]; 0% in the experiment on Bactrocera oleae [11]; 86% in the experiment with Bactrocera oleae [12]; 98.2% in the experiment on Bactrocera oleae [13]; 31.8% with Bactrocera oleae [14]; 0% in the experiment with Bactrocera oleae [16]. The Survival in the experiment with Bactrocera oleae [15] was 8.7 days. For the same compound, in the experiment with Anastrepha suspensa [17], the Activity is recorded as 60%.

In the case of `CCc1ccc(C(=O)NN(C(=O)c2cc(C)cc(C)c2)C(C)(C)C)cc1` [TEBUFENOZIDE], the mortality at 180 µg/mL turned out to be 58% in the experiment on Bactrocera oleae [10]; 0% with Bactrocera oleae [11]; 18% in the experiment with Bactrocera oleae [12]; 0% with Bactrocera oleae [13]; 0% with Bactrocera oleae [14]; 0% with Bactrocera oleae [16]. Further, the Survival in the experiment with Bactrocera oleae [15] is 66.9 days.
